{"source": "paper PMC7434893", "about": "(British Journal of Cancer, 2020)", "key": {"advanced solid tumours [1]": {"tested_on": "advanced solid tumours", "test": "Tumour response by RECIST 1.1", "assay_type": "in vivo, human", "protocol": "Tumour assessments (computed tomography, magnetic resonance imaging, photographs and bone scans, as suitable for tumour type), based on Response Evaluation Criteria in Solid Tumors version 1.1, were performed at screening and subsequently every 8 weeks until disease progression."}, "sVEGFR3": {"tested_on": "sVEGFR3", "test": "Serum biomarker analysis, sVEGFR3", "assay_type": "in vivo, human", "settings": "data not shown", "protocol": "Two pre-dose, multiple post-dose and off-treatment time points were included. Serum samples were tested for concentrations of soluble vascular endothelial growth factor receptor (VEGFR)2, VEGFR3 and soluble interleukin-2 receptor α (sIL-2Rα/CD25), using the bead-based Human Soluble Cytokine Receptor Panel assay kit. The two baseline samples (days −3 and −2 prior to dosing) were averaged, and the mean was used to calculate percent change at each of the post-dosing time points."}, "advanced solid tumours [2]": {"tested_on": "advanced solid tumours", "test": "Clinical outcome by 2X-121 DRP prediction", "assay_type": "in vivo, human", "source_text": "Matching baseline transcriptome and growth inhibition data were available for 61 of the 74 cell lines, and were used to develop a DRP as previously described.[21],[22] Briefly, IC50 values in the 61 cell lines were correlated to gene-expression levels in the same cell lines; 172 genes with a Pearson correlation above 0.25 were retained as potential markers of sensitivity, while 242 genes with a Pearson correlation below −0.25 were retained as potential markers of resistance. The 414 genes were searched in PubMed for known associations to DNA damage response or Wnt/β-catenin pathways. The 111 pathway-associated genes are shown in Supplementary Table 2. Archival biopsies, in the form of formalin-fixed paraffin-embedded blocks and slides, were obtained from patients in the trial. Only those samples that yielded RNA of sufficient quantity and quality were evaluated for gene expression. The expression of the 414 genes in the 2X-121 DRP was analysed via a custom Affymetrix U133_Plus2 microarray according to the manufacturer’s instructions. The 2X-121 DRP was applied in a blinded manner following a prespecified analysis plan. The difference between the means of the genes that were positively correlated and those negatively correlated to response was used as a single prediction score for each patient, after normalisation to a range of 0–100.\nAs a first-in-human phase 1 clinical trial, no formal sample-size calculation or hypothesis testing was undertaken. Analysis of biomarker predictions was performed using a 1-sided Pearson correlation test and a 1-sided log-rank test for time-to-event data according to a prespecified analysis plan."}, "HCC1806": {"tested_on": "HCC1806", "test": "8-day growth inhibition", "assay_type": "cell-based", "settings": "Breast, HCC1806, 8-day assay"}, "BT-20": {"tested_on": "BT-20", "test": "8-day growth inhibition", "assay_type": "cell-based", "settings": "Breast, BT-20, 8-day assay"}, "M14": {"tested_on": "M14", "test": "8-day growth inhibition", "assay_type": "cell-based", "settings": "Melanoma, M14, 8-day assay"}, "DU145": {"tested_on": "DU145", "test": "8-day growth inhibition", "assay_type": "cell-based", "settings": "Prostate, DU145, 8-day assay"}, "SF-295": {"tested_on": "SF-295", "test": "8-day growth inhibition", "assay_type": "cell-based", "settings": "GBM, SF-295, 8-day assay"}, "SNU-423": {"tested_on": "SNU-423", "test": "8-day growth inhibition", "assay_type": "cell-based", "settings": "HCC, SNU-423, 8-day assay"}, "HEC-108": {"tested_on": "HEC-108", "test": "8-day growth inhibition", "assay_type": "cell-based", "settings": "Endometrial, HEC-108, 8-day assay"}, "HEC-88nu": {"tested_on": "HEC-88nu", "test": "8-day growth inhibition", "assay_type": "cell-based", "settings": "Endometrial, 8-day assay"}, "MFE-296": {"tested_on": "MFE-296", "test": "8-day growth inhibition", "assay_type": "cell-based", "settings": "Endometrial, MFE-296, 8-day assay"}, "AN3 CA": {"tested_on": "AN3 CA", "test": "8-day growth inhibition", "assay_type": "cell-based", "settings": "Endometrial, 8-day assay"}, "NCI-H82": {"tested_on": "NCI-H82", "test": "8-day growth inhibition", "assay_type": "cell-based", "settings": "SCLC, NCI-H82, 8-day assay"}, "NCI-H446": {"tested_on": "NCI-H446", "test": "8-day growth inhibition", "assay_type": "cell-based", "settings": "SCLC, NCI-H446, 8-day assay"}, "NCI-H69": {"tested_on": "NCI-H69", "test": "8-day growth inhibition", "assay_type": "cell-based", "settings": "SCLC, NCI-H69, 8-day assay"}, "HL-60": {"tested_on": "HL-60", "test": "8-day growth inhibition", "assay_type": "cell-based", "settings": "Promyelocytic leukemia, HL-60, 8-day assay"}, "K562": {"tested_on": "K562", "test": "8-day growth inhibition", "assay_type": "cell-based", "settings": "Erythroleukemia from CML patient, K562, 8-day assay"}, "IM-9": {"tested_on": "IM-9", "test": "8-day growth inhibition", "assay_type": "cell-based", "settings": "B lymphoblast, IM-9, 8-day assay"}, "RL": {"tested_on": "RL", "test": "8-day growth inhibition", "assay_type": "cell-based", "settings": "NHL B cell lymphoma, 8-day assay"}, "U266": {"tested_on": "U266", "test": "8-day growth inhibition", "assay_type": "cell-based", "settings": "Myeloma, U266, 8-day assay"}, "Pfeiffer": {"tested_on": "Pfeiffer", "test": "8-day growth inhibition", "assay_type": "cell-based", "settings": "DLBCL (GC), 8-day assay"}, "Toledo": {"tested_on": "Toledo", "test": "8-day growth inhibition", "assay_type": "cell-based", "settings": "DLBCL (GC), 8-day assay"}, "Jeko-1": {"tested_on": "Jeko-1", "test": "8-day growth inhibition", "assay_type": "cell-based", "settings": "MCL, Jeko-1, 8-day assay"}, "JVM-13": {"tested_on": "JVM-13", "test": "8-day growth inhibition", "assay_type": "cell-based", "settings": "MCL, JVM-13, 8-day assay"}, "JVM-2": {"tested_on": "JVM-2", "test": "8-day growth inhibition", "assay_type": "cell-based", "settings": "MCL, JVM-2, 8-day assay"}, "NCEB-1": {"tested_on": "NCEB-1", "test": "8-day growth inhibition", "assay_type": "cell-based", "settings": "MCL, NCEB-1, 8-day assay"}, "PARP2": {"tested_on": "PARP2", "settings": "read-out: IC50, enzymatic activity of PARP2; cited from earlier work"}, "[3]": {"settings": "6 patients predicted sensitive by 2X-121 DRP (cut-off 50)"}, "[4]": {"settings": "7 patients predicted not sensitive by 2X-121 DRP"}}, "note": "Entries after “also recorded” stand apart in the source; their conditions may differ."}
{"smiles": "O=c1[nH]nc2c3c(cccc13)N=C(CN1Cc3ccccc3C1)N2", "note": "[E7449]", "values": [{"measurement": "ORR in patients with germline-mutated BRCA", "setting": "advanced solid tumours [1]; 1/6", "value": 16.7, "unit": "%"}, {"measurement": "Objective response rate (ORR)", "setting": "advanced solid tumours [1]; 2/41, all cohorts", "value": 4.9, "unit": "%"}, {"measurement": "Patients with BRCA mutations with partial response or stable disease", "setting": "advanced solid tumours [1]; 3/6", "value": 50, "unit": "%"}, {"measurement": "Best overall response of stable disease, patients", "setting": "advanced solid tumours [1]; 13 of 41 patients", "value": 31.7, "unit": "%"}, {"measurement": "Median duration of stable disease", "setting": "advanced solid tumours [1]; 13 patients", "value": "[…]"}, {"measurement": "Best Overall Response to E7449", "setting": "advanced solid tumours [1]; BRCA-mutated patient, platinum naïve, breast", "value": "Progressive Disease"}, {"measurement": "Best Overall Response to E7449", "setting": "advanced solid tumours [1]; BRCA-mutated patient, platinum naïve, pancreas", "value": "Stable Disease"}, {"measurement": "Best Overall Response to E7449", "setting": "advanced solid tumours [1]; BRCA-mutated patient, platinum resistant, breast", "value": "Progressive Disease"}, {"measurement": "Best Overall Response to E7449", "setting": "advanced solid tumours [1]; BRCA-mutated patients, platinum sensitive, ovary (one line per patient)", "value": "Stable Disease; also recorded: Partial Response; also recorded: Progressive Disease"}, {"measurement": "Patients with durable (>23 weeks) stable disease", "setting": "advanced solid tumours [1]; of 13 patients with SD", "value": 8}, {"measurement": "Patients with a decrease in target lesion size", "setting": "advanced solid tumours [1]; of the 35 patients evaluated for best overall response", "value": 13}, {"measurement": "Partial responses, patients", "setting": "advanced solid tumours [1]; ovarian cancer, 1 each in 600-mg and 800-mg cohorts", "value": 2}, {"measurement": "Change in serum concentration of sVEGFR3 from baseline", "setting": "sVEGFR3", "value": "[…]"}, {"measurement": "Median overall survival", "setting": "advanced solid tumours [2]; [3]", "value": "> 800", "unit": "days"}, {"measurement": "Median time to progression", "setting": "advanced solid tumours [2]; [3]", "value": 296, "unit": "days"}, {"measurement": "Median overall survival", "setting": "advanced solid tumours [2]; [4]", "value": 208, "unit": "days"}, {"measurement": "Median time to progression", "setting": "advanced solid tumours [2]; [4]", "value": 155, "unit": "days"}, {"measurement": "IC50", "setting": "HCC1806", "value": 1800, "unit": "nM"}, {"measurement": "IC50", "setting": "BT-20", "value": 7900, "unit": "nM"}, {"measurement": "IC50", "setting": "M14", "value": 6700, "unit": "nM"}, {"measurement": "IC50", "setting": "DU145", "value": 1800, "unit": "nM"}, {"measurement": "IC50", "setting": "SF-295", "value": 2600, "unit": "nM"}, {"measurement": "IC50", "setting": "SNU-423", "value": 19000, "unit": "nM"}, {"measurement": "IC50", "setting": "HEC-108", "value": 5970, "unit": "nM"}, {"measurement": "IC50", "setting": "HEC-88nu", "value": 1140, "unit": "nM"}, {"measurement": "IC50", "setting": "MFE-296", "value": 670, "unit": "nM"}, {"measurement": "IC50", "setting": "AN3 CA", "value": 1490, "unit": "nM"}, {"measurement": "IC50", "setting": "NCI-H82", "value": 470, "unit": "nM"}, {"measurement": "IC50", "setting": "NCI-H446", "value": 610, "unit": "nM"}, {"measurement": "IC50", "setting": "NCI-H69", "value": 1330, "unit": "nM"}, {"measurement": "IC50", "setting": "HL-60", "value": 10300, "unit": "nM"}, {"measurement": "IC50", "setting": "K562", "value": 4300, "unit": "nM"}, {"measurement": "IC50", "setting": "IM-9", "value": 2100, "unit": "nM"}, {"measurement": "IC50", "setting": "RL", "value": 2500, "unit": "nM"}, {"measurement": "IC50", "setting": "U266", "value": 6700, "unit": "nM"}, {"measurement": "IC50", "setting": "Pfeiffer", "value": 710, "unit": "nM"}, {"measurement": "IC50", "setting": "Toledo", "value": 1600, "unit": "nM"}, {"measurement": "IC50", "setting": "Jeko-1", "value": 1900, "unit": "nM"}, {"measurement": "IC50", "setting": "JVM-13", "value": 7300, "unit": "nM"}, {"measurement": "IC50", "setting": "JVM-2", "value": 14000, "unit": "nM"}, {"measurement": "IC50", "setting": "NCEB-1", "value": 5300, "unit": "nM"}, {"measurement": "IC50", "setting": "PARP2", "value": "[…]"}]}
